Results taken from US20240002343A1, “COMPOUNDS HAVING INHIBITORY EFFECT ON MITOCHONDRIAL HYPERFISSION” (KYUSHU UNIVERSITY, NATIONAL UNIVERSITY CORPORATION, priority 2020, published 2024).

Key:
Drp1-filamin complex = details: Non-Patent Document 6; cited from earlier work
[1] = tested on: cardiomyocytes derived from neonatal rats; test: Inhibitory effect on aging of cardiomyocytes under hypoxic stimulation (β-galactosidase, SPiDER-βGAL); assay type: cell-based, rat; details: 1 μM, 1 hour preincubation, 16 hours normoxia (20%) or hypoxia (1%); compared with cilnidipine
Experimental: The compounds prepared in Examples were investigated for effects on the aging of cardiomyocytes. The aging of cardiomyocytes was evaluated by detecting β-galactosidase, one of the aging markers.
Specifically, DOJINDO's cell aging detection kit-SPiDER-βGAL was used for detection according to the attached protocol. Each compound was added to the culture medium of cardiomyocytes derived from neonatal rats at a final concentration of 1 μM and the medium were incubated for 1 hour. Then, the medium was cultured for 16 hours under normoxia (20%) or hypoxia (1%). Subsequently, Bafilomycin A1, which inhibits endogenous β-galactosidase activity, was added and the medium was incubated for 1 hour. After washing the cells with a medium, SPiDER-βGAL was added thereto and the mixture was incubated for 30 minutes. After removing the supernatant, HEPES buffer (pH 7.4) was added thereto and the cells were observed under a fluorescence microscope to detect β-galactosidase in the aging cells. For comparison, a group involving cilnidipine as a positive control and a group involving dimethylsulfoxide (DMSO) as a negative control were prepared.
Arrowheads indicate the β-galactosidase-positive cells.

calcium channel = test: Calcium antagonism (KCl-induced calcium ion influx, Fura 2-AM); assay type: cell-based, mouse; details: Neuro-2a cells; 0, 1, 10, 100 and 1,000 nM, 30 minutes; potassium chloride 60 mM
Experimental: The compounds prepared in Examples were evaluated for calcium channel blocking activity. Specifically, at first, Neuro-2a cells, mouse-derived neuroblastoma cell line, were cultured in a serum-free medium, and Fura 2-AM (Dojindo Laboratories) that is a calcium ion probe, was added to the medium so that it was taken up by the cells.
Subsequently, after replacing the medium with HEPES buffer (pH 7.4), each compound was each added at final concentrations of 0, 1, 10, 100 and 1,000 nM and the mixtures were incubated for 30 minutes.
Then, depolarization stimulation was applied with potassium chloride (final concentration 60 mM), and the influx of calcium ions into the cells was measured by fluorescence microscopy.
FIGS. 4(a) and (b) are graphs that illustrate the results of measurement of increase in intracellular calcium ion concentration induced by potassium chloride stimulation. Δratio on the vertical axis is expressed by formula (F1) below and represents a value that reflects the intracellular calcium ion concentration.
A ratio=(fluorescence intensity at fluorescence wavelength of 510 nm against an excitation wavelength of 340 nm)/(fluorescence intensity at fluorescence wavelength of 510 nm against an excitation wavelength of 380 nm) Formula (F1)

[2] = tested on: cardiomyocytes derived from neonatal rats; test: Inhibitory effect on mitochondrial hyperfission by hypoxic stimulation; assay type: cell-based, rat; details: 0.3 μM, 1 hour preincubation, 18 hours hypoxic environment; compared with cilnidipine positive control
Experimental: A system for evaluating quantitatively the degree of mitochondrial division in cells was constructed. Specifically, cardiomyocytes derived from neonatal rats were cultured under either normoxia (20%) or hypoxia (1%) for 16 hours. Subsequently, the cells were stained with a fluorescent dye (MitoTracker Green FM, Thermo Fisher Scientific) that selectively stains mitochondria. Then, the mitochondria were observed under a fluorescence microscope, and the mitochondrial morphology was quantitatively measured by image analysis.
FIGS. 2(a) and (b) are each a micrograph and an image explaining a method for quantitatively measuring mitochondrial morphology by image analysis. FIG. 2(a) is a representative fluorescence micrograph showing the general morphology of mitochondria. FIG. 2(b) is an image obtained by filtering the photograph in FIG. 2(a) and extracting the shape of the mitochondria. Image analysis was performed based on the image in FIG. 2(b) to quantify the lengths of mitochondrial fragments. For the quantification, in order to classify the mitochondria into vesicle-shaped, intermediate-shaped and tube-shaped, <3.5 μm is set for vesicle-shaped, 3.6 μm<length<4.2 μm is set for intermediate-shaped, and >4.2 μm is set for tube-shaped, respectively, as thresholds.
The system for evaluation constructed in Test Example 1 was used to evaluate the mitochondrial hyperfission inhibitory effects of the compounds prepared in Examples.
Specifically, at first, each compound was added to the culture medium of cardiomyocytes derived from neonatal rats at a final concentration of 0.3 μM, and the mixture was incubated for 1 hour.
Then, each cells were cultured for an additional 18 hours in a hypoxic environment. Subsequently, mitochondria were stained with MitoTracker Green FM (Thermo Fisher Scientific) or anti-pyruvate dehydrogenase antibody (Abcam) and observed under a fluorescence microscope to quantitatively measure the morphology of mitochondria. For comparison, a group involving cilnidipine as a positive control and a group involving dimethyl sulfoxide (DMSO) as a negative control were also prepared.

Compound	inhibition of formation of the Drp1-filamin complex (Drp1-filamin complex)	suppressive effect on aging (β-galactosidase-positive cells) [1]	Ca2+ antagonism (increase in intracellular calcium ion concentration induced by potassium chloride stimulation) (calcium channel)	mitochondrial hyperfission inhibitory effect (percentage of cells with vesicle-shaped mitochondria) [2]
COCCOC(=O)C1=C(C)NC(C)=C(C(=O)OC/C=C/c2ccccc2)C1c1cccc([N+](=O)[O-])c1 (stereo not drawn) [Cilnidipine]	inhibit formation of the Drp1-filamin complex	–	–	–
COCCOC(=O)C1=C(C)NC(C)=C(C(=O)O)C1c1ccccc1[N+](=O)[O-] (stereo not drawn) [Compound 2, 5-((2-methoxyethoxy)carbonyl)-2,6-dimethyl-4-(2-nitrophenyl)-1,4-dihydropyridine-3-carboxylic acid]	–	suppressive effect on aging that is the same as cilnidipine	no Ca2+ antagonism	the same as or more effect of cilnidipine
COCCOC(=O)c1c(C)nc(C)c(C(=O)NCCCc2ccncc2)c1-c1ccccc1[N+](=O)[O-] [Compound 4f, 2-Methoxyethyl 2,6-dimethyl-4-(2-nitrophenyl)-5-((3-(pyridin-4-yl)propyl)carbamoyl)nicotinate]	–	suppressive effect on aging that is the same as cilnidipine	no Ca2+ antagonism	the same as or more effect of cilnidipine
COCCOC(=O)c1c(C)nc(C)c(C(=O)O)c1-c1ccccc1[N+](=O)[O-] [Compound 6, 5-((2-methoxyethoxy)carbonyl)-2,6-dimethyl-4-(2-nitrophenyl)nicotinic acid]	–	–	no Ca2+ antagonism	the same as or more effect of cilnidipine
COCCOC(=O)c1c(C)nc(C)c2c(=O)n(C)c3ccccc3c12 [Compound 10a, 2-Methoxyethyl 2,4,6-trimethyl-5-oxo-5,6-dihydrobenzo[c][2,7]naphthyridine-1-carboxylate]	–	–	–	the same as or more effect of cilnidipine
COCCOC(=O)c1c(C)nc(C)c2c(=O)n(Cc3ccccc3)c3ccccc3c12 [Compound 10b, 2-Methoxyethyl 6-benzyl-2,4-dimethyl-5-oxo-5,6-dihydrobenzo[c][2,7]naphthyridine-1-carboxylate]	–	–	–	the same as or more effect of cilnidipine
Cc1nc(C)c2c(=O)[nH]c3ccccc3c2c1C(=O)O [Compound 14, 2,4-dimethyl-5-oxo-5,6-dihydrobenzo[c][2,7]naphthyridine-1-carboxylic acid]	–	–	no Ca2+ antagonism	the same as or more effect of cilnidipine
COCCOC(=O)C1=C(C)NC(C)=C(C(=O)Nc2ccc(OC)cc2)C1c1ccccc1 (stereo not drawn) [Compound 16b, 2-Methoxyethyl 5-((4-methoxyphenyl)carbamoyl)-2,6-dimethyl-4-phenyl-1,4-dihydropyridine-3-carboxylate]	–	–	no Ca2+ antagonism	the same as or more effect of cilnidipine
COCCOC(=O)c1c(C)nc(C)c2c(=O)n(-c3cccc(OC)c3)c3ccccc3c12 [Compound 17a, 2-Methoxyethyl 6-(3-methoxyphenyl)-2,4-dimethyl-5-oxo-5,6-dihydrobenzo[c][2,7]naphthyridine-1-carboxylate]	–	–	no Ca2+ antagonism	the same as or more effect of cilnidipine
COCCOC(=O)c1c(C)nc(C)c2c(=O)n(-c3cccc(C(=O)OC(C)(C)C)c3)c3ccccc3c12 [Compound 17c, 2-Methoxyethyl 6-(3-(tert-butoxycarbonyl)phenyl)-2,4-dimethyl-5-oxo-5,6-dihydrobenzo[c][2,7]naphthyridine-1-carboxylate]	–	–	–	the same as or more effect of cilnidipine
COCCOC(=O)C1=C(C)NC(C)=C(C(=O)OCCC#N)C1c1cccc([N+](=O)[O-])c1 (stereo not drawn) [Compound 18, 3-(2-cyanoethyl) 5-(2-methoxyethyl) 2,6-dimethyl-4-(3-nitrophenyl)-1,4-dihydropyridine-3,5-dicarboxylate]	–	–	no Ca2+ antagonism	the same as or more effect of cilnidipine
COCCOC(=O)C1=C(C)NC(C)=C(C(=O)NCc2ccccc2)C1c1cccc([N+](=O)[O-])c1 (stereo not drawn) [Compound 20a, 2-Methoxyethyl 5-(benzylcarbamoyl)-2,6-dimethyl-4-(3-nitrophenyl)-1,4-dihydropyridine-3-carboxylate]	–	–	no Ca2+ antagonism	the same as or more effect of cilnidipine
COCCOC(=O)c1c(C)nc(C)c(C(=O)Nc2cccc(C(=O)OC(C)(C)C)c2)c1-c1ccccc1 [Compound 24, 2-Methoxyethoxy 5-((3-(tert-butoxycarbonylcarbonyl)phenyl)carbamoyl)-2,6-dimethyl-4-phenylnicotinate]	–	–	–	the same as or more effect of cilnidipine
COCCOC(=O)c1c(C)nc(C)c(C(=O)Nc2cccc(C(=O)O)c2)c1-c1ccccc1 [Compound 25, 3-(5-((2-methoxyethoxy)carbonyl)-2,6-dimethyl-4-phenylnicotinamido)benzoic acid]	–	–	–	the same as or more effect of cilnidipine
COCCOC(=O)c1c(C)nc(C)c(C(=O)Nc2cccc(C(=O)OC)c2)c1-c1ccccc1 [Compound 26, 2-Methoxyethoxy 5-((3-(methoxycarbonyl)phenyl)carbamoyl)-2,6-dimethyl-4-phenylnicotinate]	–	–	–	the same as or more effect of cilnidipine
COCCOC(=O)C1=C(C)NC(C)=C(C(=O)Nc2cccc(C(=O)OCCC#N)c2)C1c1ccccc1 (stereo not drawn) [Compound 30, 2-Methoxyethyl 5-((3-((2-cyanoethoxy)carbonyl)phenyl)carbamoyl)-2,6-dimethyl-4-phenyl-1,4-dihydropyridine-3-carboxylate]	–	–	–	the same as or more effect of cilnidipine
COCCOC(=O)C1=C(C)NC(C)=C(C(=O)Nc2cccc(C(=O)O)c2)C1c1ccccc1 (stereo not drawn) [Compound 31, 3-(5-((2-methoxyethoxy)carbonyl)-2,6-dimethyl-4-phenyl-1,4-dihydropyridine-3-carboxamido)benzoic acid]	–	–	–	the same as or more effect of cilnidipine
